For 56 compounds, IC50 results are on record in US9115121B2, “1,3,5-triazine-2-amine derivatives, preparation thereof and diagnostic and therapeutic use thereof” (SANOFI, priority 2011, dated 2015).

The structures appear in SMILES notation.

Chain of human CB2 receptors (P34972 whole entry): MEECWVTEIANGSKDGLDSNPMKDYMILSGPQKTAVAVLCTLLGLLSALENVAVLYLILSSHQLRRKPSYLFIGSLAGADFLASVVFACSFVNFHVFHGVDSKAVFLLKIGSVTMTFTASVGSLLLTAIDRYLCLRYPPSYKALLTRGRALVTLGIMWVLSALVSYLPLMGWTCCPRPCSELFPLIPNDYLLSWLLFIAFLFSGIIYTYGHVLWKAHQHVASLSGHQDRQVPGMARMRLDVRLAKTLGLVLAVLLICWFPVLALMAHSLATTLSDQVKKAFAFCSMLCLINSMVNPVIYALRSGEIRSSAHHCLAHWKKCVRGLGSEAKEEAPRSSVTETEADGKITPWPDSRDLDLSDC

The target in the first test is human CB2 receptors (Homo sapiens (Human), UniProt P34972). The experiment in a line: Affinity binding test on human CB2 receptors (tritiated ligand, membranes of recombinant cell lines). To be noted: concentration causing 50% inhibition of specific binding of the tritiated ligand, read-out: IC50 (nM) hCB2. The protocol:
Affinity binding tests were performed according to the experimental conditions described by M. Rinaldi-Carmona in J. Pharmacol. Exp. Therap. 1998, 287, 644-650, with membranes derived either from rodent tissues or from recombinant cell lines in which the human CB2 receptors were expressed (Munro et al., Nature 1993, 365, 61-65). The affinity of the compounds is expressed in the form of the IC50 (concentration causing 50% inhibition of specific binding of the tritiated ligand used in vitro).
For the compound `COc1nc(NCCc2ccc(F)cc2)nc(-c2cc3cc(Cl)ccc3o2)n1` [Compound 51], the IC50 was 23 nM.
As to `COc1nc(NCCc2ccc(OC(F)F)cc2)nc(-c2cccc(OC)c2C(C)(C)O)n1` [Compound 49], the IC50 was 4 nM.
On the same count and under the same terms, as for `COc1nc(NCCc2ccc(F)cc2)nc(-c2ccc(OC)c(OC)c2)n1` [Compound 3], the figure is 11 nM; as for `COc1nc(NCCc2ccc(F)cc2)nc(-c2ccc(C)c3ncccc23)n1` [Compound 38], 38 nM.
In the case of `COc1nc(NCCc2ccc(F)cc2)nc(-c2cnc3ccccc3c2)n1` [Compound 32], the IC50 was 34 nM.
Same read-out and setting: in the case of `COc1nc(NCCc2ccc(OC(F)F)cc2)nc(-c2ccc(Cl)c(OCC(N)=O)c2)n1` [Compound 68] it was 11 nM; in that of `COc1nc(NCCc2ccc(OC(F)(F)F)cc2)nc(-c2ccc(OC)c(C(C)(C)O)c2)n1` [Compound 54], 9 nM.
Take `COc1nc(NCCc2ccc(F)cc2)nc(-c2cccc3cccnc23)n1` [Compound 36]: the IC50 came out at 17 nM.
Turning to `COc1nc(NCCc2ccc(F)cc2)nc(-c2cccc(C(C)=O)c2F)n1` [Compound 10], the IC50 stood at 10 nM.
Same read-out and setting: as for `COc1nc(NCCc2ccc(F)cc2)nc(-c2cncc3ccccc23)n1` [Compound 40], the figure is 21 nM; as for `COc1nc(NCCc2ccc(F)cc2)nc(-c2ccc(OC)c(C#N)c2)n1` [Compound 64], 19 nM; as for `COc1nc(NCCc2ccc(OC(F)F)cc2)nc(-c2ccc(C)c(S(=O)(=O)NC3CC3)c2)n1` [Compound 55], 44 nM.
Still for that read-out and setting: in the case of `COc1nc(NCCc2ccc(OC(F)F)cc2)nc(-c2cccc(C(C)(C)O)c2)n1` [Compound 44] it was 18 nM; in that of `COc1nc(NCCc2ccc(F)cc2)nc(-c2cccc(OC(C)C)c2)n1` [Compound 2], 39 nM; in that of `COc1nc(NCCc2ccc(F)cc2)nc(-c2cc3ccccc3o2)n1` [Compound 30], 5 nM.
On to `COc1nc(NCCc2ccc(F)cc2)nc(-c2ccc3c(c2)OCCO3)n1` [Compound 8], for which the IC50 turned out to be 14 nM.
Regarding `COc1nc(NCCc2ccc(F)cc2)nc(-c2ccc(Cl)c(S(=O)(=O)NC3CC3)c2)n1` [Compound 62], the IC50 amounted to 4 nM.
Take `COc1nc(NCCc2ccc(F)cc2)nc(-c2ccc(N(C)C)nc2)n1` [Compound 16]: the 50% inhibitory concentration (IC50) was 35 nM.
On to `COc1nc(NCCc2ccc(F)cc2)nc(-c2ccnc3ccccc23)n1` [Compound 33], for which the IC50 was determined as 11 nM.
With `COc1nc(NCCc2ccc(F)cc2)nc(-c2cccc3[nH]ccc23)n1` [Compound 27], the concentration for half-maximal inhibition (IC50) turned out to be 27 nM.
Same read-out and setting: in the case of `CCC(O)(CC)c1cccc(-c2nc(NCCc3ccc(F)cc3)nc(OC)n2)c1` [Compound 57] it was 21 nM; in that of `COc1nc(NCCc2ccc(F)cc2)nc(-c2cccc3cnccc23)n1` [Compound 41], 20 nM; in that of `COc1nc(NCCc2ccc(F)cc2)nc(-c2ccc(CO)c(S(=O)(=O)NC3CC3)c2)n1` [Compound 59], 25 nM.
Turning to `COc1ccc2[nH]c(-c3nc(NCCc4ccc(F)cc4)nc(OC)n3)cc2c1` [Compound 24], the IC50 worked out at 21 nM.
The same measure, in the same setting: in the case of `COc1nc(NCCc2ccc(F)cc2)nc(-c2cc3c(OC)cccc3[nH]2)n1` [Compound 23] it was 33 nM.
Turning to `COC(=O)CCc1cccc(-c2nc(NCCc3ccc(F)cc3)nc(OC)n2)c1` [Compound 6], the IC50 was 12 nM.
Same read-out and setting: as for `COc1nc(NCCc2ccc(OCF)cc2)nc(-c2ccc(OC)c(C(C)(C)O)c2)n1` [Compound 70], the figure is 9 nM.
For the compound `COc1nc(NCCc2ccc(OC(F)F)cc2)nc(-c2ccc(F)c(C(C)(C)O)c2)n1` [Compound 45], the concentration for half-maximal inhibition (IC50) worked out at 30 nM.
Turning to `COc1nc(NCCc2ccc(F)cc2)nc(-c2ccc3cc[nH]c3c2)n1` [Compound 29], the IC50 was determined as 14 nM.
Regarding `COc1nc(NCCc2ccc(F)cc2)nc(-c2ccc(Cl)c(C(C)(C)O)c2)n1` [Compound 13], the IC50 amounted to 0.4 nM.
Consider `COc1ccc2oc(-c3nc(NCCc4ccc(F)cc4)nc(OC)n3)cc2c1` [Compound 48], for which the IC50 turned out to be 12 nM.
Still for that read-out and setting: in the case of `COc1nc(NCCc2ccc(F)cc2)nc(-c2ccc3c(c2)OCO3)n1` [Compound 7] it was 9 nM.
`COc1nc(NCCc2ccc(F)cc2)nc(-c2cc3ccc(F)cc3[nH]2)n1` [Compound 21]: the IC50 was determined as 48 nM.
In the case of `COc1nc(NCCc2ccc(F)cc2)nc(-c2ccc3ncccc3c2)n1` [Compound 35], the IC50 stood at 32 nM.
For the compound `COc1nc(NCCc2ccc(OC(F)F)cc2)nc(-c2cccc(S(=O)(=O)NC3CC3)c2)n1` [Compound 60], the IC50 came to 23 nM.
Turning to `COc1nc(NCCc2ccc(F)cc2)nc(-c2ccc(F)c(C(C)(C)O)c2)n1` [Compound 14], the IC50 is 8 nM.
For `COc1nc(NCCc2ccc(OC(F)F)cc2)nc(-c2cc3cc(F)ccc3[nH]2)n1` [Compound 43], the IC50 is 45 nM.
For `COc1nc(NCCc2ccc(F)cc2)nc(-c2ccc(Cl)c(OCCCNS(C)(=O)=O)c2)n1` [Compound 66], the IC50 was 18 nM.
For `COc1nc(NCCc2ccc(F)cc2)nc(-c2ccc3[nH]ccc3c2)n1` [Compound 28], the IC50 is 34 nM.
As for `COc1nc(NCCc2ccc(F)cc2)nc(-c2cc3ccc(SC)cc3[nH]2)n1` [Compound 26], the 50% inhibitory concentration (IC50) came out at 37 nM.
Consider `COc1nc(NCCc2ccc(F)cc2)nc(-c2cccc3ncccc23)n1` [Compound 34], for which the IC50 is 47 nM.
Still for that read-out and setting: as for `COc1nc(NCCc2ccc(F)cc2)nc(-c2cc3cc(C#N)ccc3[nH]2)n1` [Compound 25], the figure is 27 nM; as for `COc1nc(NCCc2ccc(OC(F)(F)F)cc2)nc(-c2ccc(Cl)c(C(C)(C)O)c2)n1` [Compound 50], 12 nM.
Still for that read-out and setting: in the case of `COc1nc(NCCc2ccc(F)cc2)nc(-c2cccc(S(=O)(=O)NC3CC3)c2)n1` [Compound 11] it was 2.7 nM.
The same measure, in the same setting: in the case of `COc1nc(NCCc2ccc(OC(F)F)cc2)nc(-c2cc3c(Cl)cccc3[nH]2)n1` [Compound 42] it was 24 nM; in that of `COc1nc(NCCc2ccc(F)cc2)nc(-c2ccc(OC)c3nc(C)ccc23)n1` [Compound 39], 38 nM.
Turning to `COc1nc(NCCc2ccc(F)cc2)nc(-c2ccc(C(C)(C)O)c(OC)c2)n1` [Compound 15], the IC50 turned out to be 17 nM.
Same read-out and setting: as for `COc1nc(NCCc2ccc(F)cc2)nc(-c2cc3cc(Br)ccc3[nH]2)n1` [Compound 17], the figure is 17 nM.
Same read-out and setting: in the case of `COc1nc(NCCc2ccc(F)cc2)nc(-c2ccc3nonc3c2)n1` [Compound 31] it was 42 nM; in that of `COc1nc(NCCc2ccc(F)cc2)nc(-c2cc3ccccc3s2)n1` [Compound 47], 4 nM.
In the case of `COc1nc(NCCc2ccc(F)cc2)nc(-c2ccc(F)c3cccnc23)n1` [Compound 37], the IC50 amounted to 1 nM.
Take `COc1nc(NCCc2ccc(F)cc2)nc(-c2cc3cc(Cl)ccc3[nH]2)n1` [Compound 19]: the IC50 came out at 14 nM.
On the same count and under the same terms, in the case of `COc1nc(NCCc2ccc(F)cc2)nc(-c2cc3cc(C)ccc3[nH]2)n1` [Compound 22] it was 24 nM; in that of `COc1nc(NCCc2ccc(F)cc2)nc(-c2ccc(SC)cc2)n1` [Compound 5], 14 nM.

The same test, now with this note: reported in text, read-out: IC50 on hCB2.
Turning to `COc1ccc(-c2nc(NCCc3ccc(F)cc3)nc(OCF)n2)cc1C(C)(C)O` [Compound 72, 2-{5-[4-(Fluoromethoxy)-6-{[2-(4-fluorophenyl)ethyl]amino}-1,3,5-triazin-2-yl]-2-methoxyphenyl}propan-2-ol], the IC50 worked out at 1.2 nM.
Consider `CC(C)(O)c1cc(-c2nc(NCCc3ccc(F)cc3)nc(OCF)n2)ccc1Cl` [Compound 71, 2-{2-Chloro-5-[4-(fluoromethoxy)-6-{[2-(4-fluorophenyl)ethyl]amino}-1,3,5-triazin-2-yl]phenyl}propan-2-ol], for which the IC50 amounted to 1.2 nM.

By IC50 is commonly meant the concentration that gives 50% inhibition.
